Reference: PubChem BioAssay (NCI)
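Each compound was tested at five concentrations against cells in 96-well plates for 48 hours. GI50 marks 50% less growth. TGI denotes the concentration required for complete inhibition of growth.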

Assays:
Assay in all cases: NCI tumour cell line growth inhibition, 48 h
[1] = tested on: NCI/ADR-RES ovarian
[2] = tested on: A549 NSCLC
[3] = tested on: HCT-15 colon
[4] = tested on: OVCAR-5 ovarian
[5] = tested on: COLO 205 colon
[6] = tested on: LOX IMVI melanoma
[7] = tested on: SW-620 colon
[8] = tested on: HOP-92 NSCLC
[9] = tested on: SK-MEL-28 melanoma
[10] = tested on: SNB-19 CNS

Row | SMILES | TGI [1] [µM] | TGI [2] [µM] | TGI [3] [µM] | TGI [4] [µM] | TGI [5] [µM] | TGI [6] [µM] | TGI [7] [µM] | TGI [8] [µM] | TGI [9] [µM] | TGI [10] [µM] | GI50 [1] [µM] | GI50 [2] [µM] | GI50 [3] [µM] | GI50 [4] [µM] | GI50 [5] [µM] | GI50 [6] [µM] | GI50 [7] [µM] | GI50 [8] [µM] | GI50 [9] [µM] | GI50 [10] [µM]
1 | Cc1cc2nc(N3C(=O)/C(=C/c4cccc([N+](=O)[O-])c4)N=C3c3ccccc3)sc2cc1C | > 100 | > 100 | > 100 | > 100 | > 100 | 55.8 | > 100 | 58.2 | > 100 | > 100 |  |  |  |  |  |  |  |  |  | 
2 | O=C1/C(=C\c2ccc([N+](=O)[O-])cc2)Sc2scc(-c3ccc(O)c(O)c3)[n+]21 | 50.1 | 55.4 | 14.1 | 35.4 | 6.07 | > 100 | 15 | 31.8 | 25 | 74 |  |  |  |  |  |  |  |  |  | 
3 | CC[C@@H]1CN2CCC1C[C@@H]2C(O)c1ccnc2ccc(OCCN3CCN(CCOc4ccc5nccc(C(O)[C@@H]6C[C@@H]7CCN6C[C@@H]7CC)c5c4)CC3)cc12 (stereo not given in full) | > 100 | 29.8 | 56.2 | 32.9 | 33.1 | 38.5 | 55.6 | 22.8 | 35.5 | 27.9 |  |  |  |  |  |  |  |  |  | 
4 | CC[C@@H](CCCC[C@@H]1CC[C@H]2CC(=O)C[C@@H]12)OC | > 100 | > 100 | > 100 | > 100 | > 100 | > 100 | > 100 | > 100 | > 100 | > 100 |  |  |  |  |  |  |  |  |  | 
5 | O=C1NCC2(CCNCC2)N1c1ccccc1 | > 100 | > 100 | > 100 | > 100 | > 100 | > 100 | > 100 | > 100 | > 100 | > 100 |  |  |  |  |  |  |  |  |  | 
6 | CN1CCN(c2nc3ccccc3nc2C(=O)c2ccc(Cl)cc2)CC1 | > 100 | > 100 | > 100 | > 100 | > 100 | > 100 | > 100 | > 100 | > 100 | > 100 |  |  |  |  |  |  |  |  |  | 
7 | O=C(NCCN1C(=O)CN=C(c2ccc(Cl)cc2)c2cc(Cl)ccc21)OCc1ccccc1 | 35.7 | 32.7 | 44.6 | 49.7 | 50.4 | 33.9 | > 100 | 31.2 | > 100 | 50.8 |  |  |  |  |  |  |  |  |  | 
8 | COc1ccc(/C=C2\CN(C(=O)CCN3CCC(=NO)CC3)C/C(=C\c3ccc(OC)cc3)C2=O)cc1 | 20.8 | 11.7 | 5.56 | 3.92 | 4.11 | 2.96 | 3.14 | 9.32 | 4.17 | 7.55 | 3.72 | 3.28 | 2.15 | 1.83 | 2.04 | 1.47 | 1.39 | 2.34 | 2 | 2.58
9 | O/N=c1/ccn(O)c2ccccc12 | 4.7 | 6.74 | 5.21 | 14.7 | 4.74 | 5.67 | 11.8 | 8.65 | 3.16 | 14.1 |  |  |  |  |  |  |  |  |  | 
10 | COc1ccccc1/C=C1\Sc2scc(-c3cccc([N+](=O)[O-])c3)[n+]2C1=O | 34.2 | 35.4 | 5.92 | 39 | 5.19 | 4.39 | > 36.4 | 16.6 | 65.2 | 25.8 |  |  |  |  |  |  |  |  |  | 
11 | CC(NC1=CC(=O)c2ncccc2C1=O)C(O)c1ccccc1 (stereo not given) | 43.1 | 12.8 | 17.3 | 29.3 | 29.7 | 13.3 | 19.8 | 27.9 | 10.9 | 20 |  |  |  |  |  |  |  |  |  | 
12 | CC(=O)Oc1c(C)cc(-c2cc(C)c(OC(C)=O)c(C)c2)cc1C | > 100 | > 100 | > 100 | > 100 | > 100 | > 100 | > 100 | > 100 | > 100 | > 100 |  |  |  |  |  |  |  |  |  | 
13 | CN(C)CCN1C(=O)CC[C@@]2(C)C1=CC[C@@H]1[C@@H]2CC[C@@]2(C)[C@H]1CC[C@]2(C)O | > 100 | > 100 | > 100 | > 100 | > 100 | > 100 | > 100 | > 100 | > 100 | > 100 |  |  |  |  |  |  |  |  |  | 
14 | O=C1C(C(O)(C(F)(F)Cl)C(F)(F)Cl)CCC1C(O)(C(F)(F)Cl)C(F)(F)Cl (stereo not given) | > 10 | > 10 | > 10 | > 10 | > 10 | > 10 | > 10 | 5.39 | > 10 | > 10 |  |  |  |  |  |  |  |  |  | 
15 | COC(=O)C1Cc2c([nH]c3ccccc23)C(c2cccc(O)c2)N1 (stereo not given) | 49.2 | > 100 | > 100 | 82.9 | 90.3 | > 100 | 60.8 | 79.9 | 73.4 | > 100 |  |  |  |  |  |  |  |  |  | 
16 | S=C(NNC1=NCCCN1)Nc1ccccc1 | > 100 | > 100 | > 100 | > 100 | > 100 | > 100 | > 100 | > 100 | > 100 | > 100 |  |  |  |  |  |  |  |  |  | 
17 | CC12CC3CC/C(=N\O)C(C1)C3(N1CCOCC1)C/C2=N/O (stereo not given) | > 100 | > 100 | > 100 | > 100 | > 100 | > 100 | > 100 | > 100 | > 100 | > 100 |  |  |  |  |  |  |  |  |  | 
18 | CC(=O)Oc1ccc(N2C(=O)C3c4[nH]c5ccccc5c4C4CCC(C(C)(C)C)CC4C3C2=O)cc1 (stereo not given) | 14.7 | 10.7 | 12.3 | 14.6 | 17.5 | 14.3 | 5.16 | 7.84 | 14.9 | 9.84 |  |  |  |  |  |  |  |  |  | 
19 | N#C/C(=C1\N=C(c2ccccc2O)Oc2ccccc21)c1ccc([N+](=O)[O-])cc1 | > 100 | > 100 | > 100 | > 100 | > 100 | > 100 | > 100 | > 100 | > 100 | > 100 |  |  |  |  |  |  |  |  |  | 
